From patent EP2488183B1, “Composition for inhibiting TGF-beta comprising imidazopurine derivatives” (Korea Institute of Radiological & Medical Sciences, priority 2009, dated 2011) come the findings set out here.

Assay [1] relates to IMR-90 cells. Put plainly: Collagen Sircol assay in TGF-β-treated lung fibrocytes. Format: cell-based, human. The conditions noted are these: IMR-90, TGF-β (5 ng/ml), 0, 1, 5 and 10 µM; FIG. 7b. How it is done: (§1) IMR-90 cells, human normal lung fibrocytes, were purchased from American Type Culture Collection (ATCC, U.S.A.), and were incubated under 5% CO2 and at a temperature of 37°C for 24 hours in a modified Eagle's medium (MEM) supplemented with 10% FBS serum, 100 units/ml of penicillin, and 100 µg/ml of streptomycin, 1 mM sodium pyruvate, and 0.1 mM non-essential amino acids. Then, two hours before treatment with TGF-β (5ng/ml), compound I was added to the cell culture at a varying concentration (0, 1, 5 and 10 µM) and then, the IMR-90 cells were incubated for 24 hours. Then, as described in Example 2, western blotting was performed to identify inhibition of differentiation of lung fibrocytes by compound I based on expression levels of α-SMA and fibronectin, which are fibrosis marker molecules. […] Also, in extracellular matrix, the amount of collagen, which is one of important materials regarding fibrosis, was measured according to the specification of the manufacturer by using a collagen Sircol assay kit (Biocolor, England).

Assay [2] concerns IMR-90 cells. The assay can be described thus: Collagen amount in irradiated lung fibrocytes. To be noted: IMR-90, 10 µM, 2 h before 4 Gy radiation, 48 h; FIG. 7d. The assay is classed as cell-based, human. How it is done:
(§2) In order to identify whether compound I inhibits radiation-induced fibrosis, instead of external stimulation by TGF-β radiation that can internally engogenously increase TGF-β was employed to induce fibrosis. IMR-90 cells were incubated as described in (1) above and the IMR-90 cells were inoculated to a 6 cm plate containing a modified Eagle's medium (MEM) supplemented with 10% FBS serum, 100 units/ml of penicillin, and 100 µg/ml of streptomycin, 1 mM sodium pyruvate, and 0.1 mM non-essential amino acids. Then, compound I at a concentration of 10 µM was added thereto and the IMR-90 cells were incubated for 2 hours, and then, 4 Gy radiation was applied thereto. 48 hours later, the IMR-90 cells were collected. Then, fibrosis makers as described in Example 2 were identified from the IMR-90 cells by western blotting.

The subject of assay [3] is IMR-90 cells. Put plainly: Western blotting of fibrosis markers in TGF-β-treated lung fibrocytes. The assay is classed as cell-based, human. To be noted: IMR-90, 0, 1, 5 and 10 µM added 2 h before TGF-β (5 ng/ml), 24 h; FIG. 7a. How it is done: as §1
Background: A western blot detects proteins with antibodies after separation by electrophoresis.

Assay [4] deals with IMR-90 cells. Put plainly: Western blotting of fibrosis markers in irradiated lung fibrocytes. Format: cell-based, human. The conditions noted are these: IMR-90, 10 µM, 2 h before 4 Gy radiation, 48 h; FIG. 7c. On the procedure:
as §2

The test system of assay [5] is HSC-T6 cells. Put plainly: Western blotting of fibrosis markers in TGF-β-treated hepatic stellate cells. The assay is classed as cell-based, human. The conditions noted are these: HSC-T6, 0, 1, 5 and 10 µM added 2 h before TGF-β (5 ng/ml), 24 h; FIGS. 6a, 6b. On the procedure:
In addition, levels of α-smooth muscle actin (α-SMA) and extracellular matrix material fibronectin, which are typically used as a fibrosis molecular marker to identify fibrosis of hepatic stellate cells, were measured by western blotting. Two hours before the treatment with TGF-β(5 ng/ml), each of compounds I and II was added at a varying concentration (0, 1, 5 and 10 µM) to the HSC-T6 cells incubated under the conditions described above, and then, the HSC-T6 cells were incubated under 5% CO2, and at a temperature of 37°C. After 24-hour incubation, the HSC-T6 cells were dissolved in a RIPA buffer solution (50 mM Tris-Cl (pH7.4), 1% NP-40, 150 mM NaCl, 1 mM EDTA) including a protease inhibitor (1 mM PMSF, […] aprotinin, […] leupeptin, and 1 mM Na3VO4) to prepare cytoplasm fractions, and 4-12% gradient SDS-PAGE (Invitrogen) was performed on the cytoplasmic fractions to separate proteins. The proteins separated on the SDS-PAGE gel were transferred to a nitrocellulose membrane (BioRad, Hercules, CA, USA) and the membrane was blocked with 5% skim milk. Then, the membrane was treated with an anti-α-SMA antibody (Sigma, U.S.A.), an anti-fibronectin antibody (Santa Cruz, U.S.A.), and an anti-GAPDH antibody (Ab Frontier, Korea). […]

In assay [6] the test system is RAW 264.7 cell. The assay can be described thus: RT-PCR of pro-inflammatory cytokine and iNOS mRNA in macrophages stimulated by LPS. The assay is classed as cell-based, mouse. To be noted: RAW 264.7, compound 2 h before 1 µg/ml LPS, 6 h; FIG. 8. On the procedure:
A macrophage is a front-line immune cell that is responsible for an initial immune response to various antigens and causes a strong inflammation reaction. RAW 264.7 cell, a mouse macrophage strain, was purchased from American Type Culture Collection (ATCC, U.S.A.), and incubated under 5% CO2 and at a temperature of 37°C in a Dulbecco's modified Eagle's medium (DMEM) supplemented with 10% FBS serum, 100 units/ml of penicillin, and 100 µg/ml of streptomycin. […] of compound I or II was added to the incubated cells and then, two hours later, the cells were treated with 1 µg/ml lipopolysaccharide (LPS), which is a cell wall component of a gram negative bacteria and incubated further for 6 hours. Then, the cells were collected and the total RNA thereof was isolated using TRIzol and quantified. Out of the total RNA, 1 µg of RNA was used to synthesize cDNA using a reverse transcriptase. Then, a polymerase chain reaction (PCR) was performed using the cDNA as a template to identify expression levels of cytokines. In detail, PCR was performed in the presence of a DNA polymerase using the cDNA as a template to amplify IL-1β, IL-6, and TNF-α which are pro-inflammatory cytokines, iNOS, nitric oxide synthase, and β-actin used as a control group with a cycle consisting of 30 seconds at a temperature of 94°C, 45 seconds at a temperature of 55°C, and 45 seconds at a temperature of 72°C repeated 30 times. Primers set forth in SEQ ID. NOs: 1 through 10 shown in Table 1 were used to amplify IL-1β, IL-6, TNF-α, iNOS and β-actin, respectively. Table 1 [Table 1]
The amplification product of PCR was subjected to electrophoresis on 1% agarose gel in which ethidium bromide (dye) was present so as to measure mRNA expression levels of the cytokines. FIGS. 8a and 8b show changes in the amounts of the pro-inflammatory cytokines caused by compounds I and II, respectively.

For the compound `Cc1cn2c(nc3c2c(=O)n(Cc2ccccc2Cl)c(=O)n3C)[nH]1` [compound I, 3-(2-chlorobenzyl)-1,7-dimethyl-1H-imidazo[2,1-f]purine-2,4(3H,8H)-dion], in assay [1], the amount of collagen entry is “concentration-dependently reduced the amount of collagen”. Moreover, in assay [2], the amount of collagen entry is given as “reduced to a level similar to that in the no-treatment control group”. The “fibrosis in human lung fibrocytes (expression levels of α-SMA and fibronectin)” value in assay [3] was “concentration-dependently decreased fibrosis”. Further, in assay [4], the “expressions of α-SMA and fibronectin” value was “significantly reduced”. Besides, the “expression of α-SMA and fibronectin (fibrosis markers)” value in assay [5] is “concentration-dependently reduced”. In assay [6], the “IL-1 mRNA expression” value is given as “significantly inhibited”, the “expression of TNF-α” value is given as “slightly reduced” and the “iNOS mRNA expression” value is listed as “significantly inhibited”.
Consider `Cc1[nH]c2nc3c(c(=O)n(Cc4c(F)cccc4Cl)c(=O)n3C)n2c1C` [compound II, 3-(2-chloro-6-fluorobenzyl)-1,6,7-trimethyl-1H-imidazo[2,1-f]purine-2,4(3H,8H)-dion], for which the “expression of α-SMA and fibronectin (fibrosis markers)” value in assay [5] is on record as “significantly reduced fibrosis markers”. For the same compound, in assay [6], the “IL-6 mRNA expression” value is on record as “distinctively reduced”, the “expression of TNF-α” value is listed as “slightly reduced” and the “iNOS mRNA expression” value was “distinctively reduced”.
